From patent US20070112175A1, “Determining drug resistance” (Children's Cancer Institute Australia for Medical Research, priority 2003, published 2007)

Key:
[1] = system: NIH3T3 mutant γ-actin transfectant cells; test: Drug treatment and α-tubulin immunofluorescence of microtubules; assay type: cell-based, mouse; conditions: 10 μM, 30 min
Experimental: NIH3T3 mutant γ-actin transfectant cells were grown to ˜80% confluency in 4-well chamber slides (Nalge Nunc International, Naperville, Ill.) and treated with either 0.5% DMSO (vehicle control), 10 μM VLB, or 10 μM dEpoB, for 30 min, prior to immunostaining for total α-tubulin using standard methods. Epifluorescence imaging was performed using a Zeiss Axioscope 100 linked to a cooled CCD camera.

[2] = system: NIH3T3 mutant γ-actin transfectant cells; test: Drug resistance clonogenic assay; assay type: cell-based, mouse; conditions: P<0.05
Experimental: DNA (1 μg) was transfected into subconfluent NIH3T3 mouse fibroblast cells using the Fugene (Roche) transfection reagent according to the manufacturer's instructions. Stable transfectants were selected in 1 mgm1^−1 G418 for 16 days. Levels of γ-actin expression were determined by immunoblotting as described above.
The ability of mutant γ-actin to confer resistance to antimicrotubule agents was determined using clonogenic assays with slight modifications. NIH3T3 mutant γ-actin transfectant cells were seeded at 100 cells/well in replicate wells of a 24-well dish containing increasing concentrations of VLB. The media was replaced after 3 days with drug-free DME/10%FCS. After a further 4 days the media was removed and colonies stained with 0.1% crystal violet. The densitometric volume of each well was determined using the Quantity One software package (Biorad) and expressed relative to the respective drug-free control cells. The concentration that kills 50% of cells (ID50) and statistical analyses were then performed. The relative resistance was determined by dividing the ID50 of each γ-actin transfectant cell line with the ID50 of the empty vector cells.

CEM/VLB100 cells = test: Resistance of vinblastine-selected subline CEM/VLB100; assay type: cell-based, Human; conditions: CEM/VLB100 subline of CCRF-CEM
From the text: (§1) Human T-cell acute lymphoblastic leukaemia cells, CCRF-CEM, and drug resistant sublines, CEM/VCR R (vincristine-selected) and CEM/VLB100 (vinblastine-selected), and CEM/dEpoB 1×, CEM/dEpoB 2×, CEM/dEpoB 4×, CEM/dEpoB 10×(desoxyepothilone B-selected), were maintained in RPMI 1640 containing 10% FCS as suspension cultures. The CEM/VCRR are 22,600-fold and CEM/VLB100 are 6,667-fold resistant to vincristine and vinblastine respectively. Cells were harvested for protein analysis by centrifugation at 1500 rpm for 5 min.

CEM/VCR R cells = test: Resistance of vincristine-selected subline CEM/VCR R; assay type: cell-based, Human; conditions: CEM/VCR R subline of CCRF-CEM
From the text: as §1

[3] = empty vector and wild type γ-actin expressing cells

C/C1=C/C[C@@H](/C(C)=C/c2csc(C)n2)OC(=O)C[C@H](O)C(C)(C)C(=O)[C@H](C)[C@@H](O)[C@@H](C)CCC1 [dEpoB, Desoxyepothilone B]
effect on cell shape and microtubule network [1, 3]: marked structural changes | effect on cell shape and microtubule network ([1]; mutant γ-actin transfectants): microtubule network remains largely intact

CC[C@]1(O)C[C@@H]2CN(CCc3c([nH]c4ccccc34)[C@@](C(=O)OC)(c3cc4c(cc3OC)N(C)[C@H]3[C@@](O)(C(=O)OC)[C@H](OC(C)=O)[C@]5(CC)C=CCN6CC[C@]43[C@@H]65)C2)C1 [vinblastine]
relative resistance (ID50 transfectant / ID50 empty vector) ([2]; P98L γ-actin mutant vs empty vector and wildtype γ-actin cells): over 3 fold | relative resistance (ID50 transfectant / ID50 empty vector) ([2]; V103L γ-actin mutant vs empty vector and wildtype γ-actin cells): over 2 fold | fold resistant to vinblastine (CEM/VLB100 cells): 6,667 fold | effect on cell shape and microtubule network [1, 3]: marked structural changes | effect on cell shape and microtubule network ([1]; mutant γ-actin transfectants): microtubule network remains largely intact

CC[C@]1(O)C[C@H]2CN(CCc3c([nH]c4ccccc34)[C@@](C(=O)OC)(c3cc4c(cc3OC)N(C=O)[C@H]3[C@@](O)(C(=O)OC)[C@H](OC(C)=O)[C@]5(CC)C=CCN6CC[C@]43[C@@H]65)C2)C1 [vincristine]
fold resistant to vincristine (CEM/VCR R cells): 22,600 fold
